# Data taken from patent US9902716B2, “Fluorinated benzofuranyl-pyrimidine derivatives containing a sulfone group” (Bayer Pharma Aktiengesellschaft, priority 2014, dated 2018).
# Experiments:
# [1] = system: Caco-2 cells; experiment: Proliferation assay Caco-2 (Method 3, crystal violet); assay type: cell-based; settings: Homo sapiens, 96 h; Caco-2, 4 days incubation; read-out: Inhibition of Caco-2 cell proliferation IC50
# Experimental: Cultivated tumour cells (HeLa, human cervical tumour cells, ATCC CCL-2; NCI-H460, human non-small cell lung carcinoma cells, ATCC HTB-177; A2780, human ovarian carcinoma cells, ECACC #93112519; DU 145, hormone-independent human prostate carcinoma cells, ATCC HTB-81; HeLa-MaTu-ADR, multidrug-resistant human cervical carcinoma cells, EPO-GmbH Berlin; Caco-2, human colorectal carcinoma cells, ATCC HTB-37; B16F10, mouse melanoma cells, ATCC CRL-6475) were plated at a density of 5,000 cells/well (DU145, HeLa-MaTu-ADR), 3,000 cells/well (NCI-H460, HeLa), 2,500 cells/well (A2780), 1,500 cells/well (Caco-2), or 1,000 cells/well (B16F10) in a 96-well multititer plate in 200 μL of their respective growth medium supplemented 10% fetal calf serum. After 24 hours, the cells of one plate (zero-point plate) were stained with crystal violet (see below), while the medium of the other plates was replaced by fresh culture medium (200 μl), to which the test substances were added in various concentrations (0 μM, as well as in the range of 0.001-10 μM; the final concentration of the solvent dimethyl sulfoxide was 0.5%). The cells were incubated for 4 days in the presence of test substances. Cell proliferation was determined by staining the cells with crystal violet: the cells were fixed by adding 20 μl/measuring point of an 11% glutaric aldehyde solution for 15 minutes at room temperature. After three washing cycles of the fixed cells with water, the plates were dried at room temperature. The cells were stained by adding 100 μl/measuring point of a 0.1% crystal violet solution (pH 3.0). After three washing cycles of the stained cells with water, the plates were dried at room temperature. The dye was dissolved by adding 100 μl/measuring point of a 10% acetic acid solution. The extinction was determined by photometry at a wavelength of 595 nm. The change of cell number, in percent, was calculated by normalization of the measured values to the extinction values of the zero-point plate (=0%) and the extinction of the untreated (0 μm) cells (=100%). […]
# [2] = target: T1, CDK2/CycE (Homo sapiens, UniProt P24941); experiment: CDK2/CycE high ATP kinase assay (Method 2b, TR-FRET); assay type: biochemical; settings: 2 mM ATP
# T1 construct: GST; purchased ProQinase GmbH (Freiburg, Germany); host or cells: insect cells (Sf9)
# Experimental: 2b. CDK2/CycE High ATP Kinase Assay:
# CDK2/CycE-inhibitory activity of compounds of the present invention at 2 mM adenosine-tri-phosphate (ATP) was quantified employing the CDK2/CycE TR-FRET (TR-FRET=Time Resolved Fluorescence Energy Transfer) assay as described in the following paragraphs.
# Recombinant fusion proteins of GST and human CDK2 and of GST and human CycE, expressed in insect cells (Sf9) and purified by Glutathion-Sepharose affinity chromatography, were purchase from ProQinase GmbH (Freiburg, Germany). As substrate for the kinase reaction biotinylated peptide biotin-Ttds-YISPLKSPYKISEG (C-terminus in amid form) was used which can be purchased e.g. form the company JERINI peptide technologies (Berlin, Germany).
# For the assay 50 nl of a 100 fold concentrated solution of the test compound in DMSO was pipetted into a black low volume 384 well microtiter plate (Greiner Bio-One, Frickenhausen, Germany), 2 μl of a solution of CDK2/CycE in aqueous assay buffer [50 mM Tris/HCl pH 8.0, 10 mM MgCl2, 1.0 mM dithiothreitol, 0.1 mM sodium ortho-vanadate, 0.01% (v/v) Nonidet-P40 (Sigma)] were added and the mixture was incubated for 15 min at 22° C. to allow pre-binding of the test compounds to the enzyme before the start of the kinase reaction. Then the kinase reaction was started by the addition of 3 μl of a solution ATP (3.33 mM=> final conc. in the 5 μl assay volume is 2 mM) and substrate (1.25 μM=> final conc. in the 5 μl assay volume is 0.75 μM) in assay buffer and the resulting mixture was incubated for a reaction time of 25 min at 22° C. […]
# The resulting mixture was incubated 1 h at 22° C. to allow the formation of complex between the phosphorylated biotinylated peptide and the detection reagents. Subsequently the amount of phosphorylated substrate was evaluated by measurement of the resonance energy transfer from the Euchelate to the streptavidine-XL. Therefore, the fluorescence emissions at 620 nm and 665 nm after excitation at 350 nm wer measured in a TR-FRET reader, e.g. a Rubystar (BMG Labtechnologies, Offenburg, Germany) or a Viewlux (Perkin-Elmer). […]
IC50 [1],IC50 [2],Compound
313 nM,8560 nM,"Cc1cc(CS(C)(=O)=O)cc(Nc2ncc(F)c(-c3ccc(F)c4ccoc34)n2)c1 [Example 4, 5-Fluoro-4-(4-fluoro-1-benzofuran-7-yl)-N-{3-methyl-5-[(methylsulfonyl)methyl]-phenyl}pyrimidin-2-amine]"
392 nM,–,CS(=O)(=O)Cc1cc(F)cc(Nc2ncc(F)c(-c3ccc(F)c4ccoc34)n2)c1 [Example 3]
300 nM,1320 nM,"CS(=O)(=O)Cc1cccc(Nc2ncc(F)c(-c3ccc(F)c4ccoc34)n2)c1 [Example 1, 5-Fluoro-4-(4-fluoro-1-benzofuran-7-yl)-N-{3-[(methylsulfonyl)methyl]-phenyl}pyrimidin-2-amine]"
–,917 nM,"CCS(=O)(=O)Cc1cccc(Nc2ncc(F)c(-c3ccc(F)c4ccoc34)n2)c1 [Example 2, N-{3-[(Ethylsulfonyl)methyl]phenyl}-5-fluoro-4-(4-fluoro-1-benzofuran-7-yl)pyrimidin-2-amine]"
